Experimental data as given in paper PMC12040969, “Design, synthesis, in silico studies, and apoptotic antiproliferative activity of novel thiazole-2-acetamide derivatives as tubulin polymerization inhibitors” (Frontiers in Chemistry, 2025).

Tests used:
[1] = Cell viability assay (MTT), normal cells; format: cell-based; details: human, MCF-10A normal mammary gland epithelial cells, four-day incubation
Method: The impact of novel compounds 10a-o and 13a-e on cell viability was examined using the MCF-10A (human mammary gland epithelial) normal cell line. The MTT test was employed to assess the cell viability of the novel compounds after a four-day incubation with MCF-10A cells ([El-Sherief et al., 2019]; [Ramadan et al., 2020]).
The effects of compounds 10a-o and 13a-e on cell viability were assessed using the human mammary gland epithelial normal cell line (MCF-10A). The MTT assay assessed the cell viability of compounds 10a-o and 13a-e following a four-day incubation with MCF-10A cells ([El-Sherief et al., 2019]; [Ramadan et al., 2020]). Check Supplementary Appendix A for additional information.
4.2. Biological evaluation
4.2.1 Cell Viability assay (MTT assay)
MTT assay was performed to investigate the effect of the synthesized compounds on mammary epithelial cells (MCF-10A). The cells were propagated in medium consisting of Ham's F-12 medium/ Dulbecco's modified Eagle's medium (DMEM) (1:1) supplemented with 10% foetal calf serum, 2 mM glutamine, insulin (10 μg/mL), hydrocortisone (500 ng/mL) and epidermal growth factor (20 ng/mL). Trypsin ethylenediamine tetra acetic acid (EDTA) was used to passage the cells after every 2-3 days. 96-well flat-bottomed cell culture plates were used to seed the cells at a density of 10^4 cells mL-1. The medium was aspirated from all the wells of culture plates after 24 h followed by the addition of synthesized compounds (in 200 μL medium to yield a final concentration of 0.1% (v/v) dimethyl sulfoxide) into individual wells of the plates.
Four wells were designated to a single compound. The plates were allowed to incubate at 37°C for 96 h. Afterwards, the medium was aspirated and 3-[4,5-dimethylthiazol-2-yl]-2,5-diphenyltetrazolium bromide (MTT) (0.4 mg/mL) in medium was added to each well and subsequently incubated for 3 h. The medium was aspirated and 150 μL dimethyl sulfoxide (DMSO) was added to each well. The plates were vortexed followed by the measurement of absorbance at 540 nm on a microplate reader. The results were presented as inhibition (%) of proliferation in contrast to controls comprising 0.1%

[2] = test system: tubulin; assay: Tubulin polymerization inhibition assay (Cytoskeleton kit);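 for all read-outs here: Cell-free tubulin polymerization read by fluorescent reporter enhancement over a 30 min reaction, with the compound-free kit control taken as 100% activity and inhibition relative to it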; details: for Tub. enzyme inhibition assay %inhibition / Tub %inh: 30 min; for Tub. enzyme inhibition assay %inhibition: codes 522-537 run; for Tub. enzyme inhibition assay K. Activity: control = 120, codes 522-537 run; for IC50: read-out: Tubulin inhibition IC50 ± SEM, triplicate for each tested concentration; for Tub. (IC50) IC50±SD: supplement raw data, lab codes; for Tub %inh: YB-EGY run; for Tub K.Activity: EC = 120, YB-EGY run

What does the source list for COc1ccc(/C=C/C(=O)c2sc(SCC(=O)Nc3nc(-c4ccc(Cl)cc4)cs3)nc2C)cc1 [Compound 10j, (E)-N-(4-(4-chlorophenyl)thiazol-2-yl)-2-((5-(3-(4-methoxyphenyl)acryloyl)-4-methylthiazol-2-yl)thio)acetamide]?
viability at 96 h, 50 µM [1]: 93%; Tub. enzyme inhibition assay %inhibition ([2]; conc 0.01 (unit not given)): 2.01%; Tub. enzyme inhibition assay K. Activity ([2]; conc 0.01 (unit not given)): 117.59; Tub. enzyme inhibition assay %inhibition ([2]; conc 0.1 (unit not given)): 7.08%; Tub. enzyme inhibition assay K. Activity ([2]; conc 0.1 (unit not given)): 111.51; Tub. enzyme inhibition assay %inhibition ([2]; conc 1 (unit not given)): 22.6%; Tub. enzyme inhibition assay K. Activity ([2]; conc 1 (unit not given)): 92.923; Tub. enzyme inhibition assay %inhibition ([2]; conc 10 (unit not given)): 45.7%; Tub. enzyme inhibition assay K. Activity ([2]; conc 10 (unit not given)): 65.175; Tub. enzyme inhibition assay %inhibition ([2]; conc 100 (unit not given)): 75.5%; Tub. enzyme inhibition assay K. Activity ([2]; conc 100 (unit not given)): 29.401; IC50 [2]: 20.6 ± 0.75 µM; Tub. (IC50) IC50±SD [2]: 11.14 ± 0.41 µg/mL

For Cc1ccc(-c2csc(NC(=O)CSc3nc(C)c(C(=O)/C=C/c4ccccc4)s3)n2)cc1 [Compound 10k, (E)-2-((5-cinnamoyl-4-methylthiazol-2-yl)thio)-N-(4-(p-tolyl)thiazol-2-yl)acetamide], which viability at 96 h, 50 µM [1] is on record?
The viability at 96 h, 50 µM was 90%.

What about the “Tub. enzyme inhibition assay %inhibition” value ([2]; conc 0.01 (unit not given)) of the same molecule?
The value was 0.28%.

What about the “Tub. enzyme inhibition assay K. Activity” value ([2]; conc 0.01 (unit not given)) of the same molecule?
The value was 119.66.

And the “Tub. enzyme inhibition assay %inhibition” value ([2]; conc 0.1 (unit not given))?
Its value is 5.09%.

And the “Tub. enzyme inhibition assay K. Activity” value ([2]; conc 0.1 (unit not given))?
Its value is 113.89.

And the “Tub. enzyme inhibition assay %inhibition” value ([2]; conc 1 (unit not given))?
The value was 16.5%.

What about the “Tub. enzyme inhibition assay K. Activity” value ([2]; conc 1 (unit not given)) of the same molecule?
The value was 100.23.

What about the “Tub. enzyme inhibition assay %inhibition” value ([2]; conc 10 (unit not given)) of the same molecule?
Its value is 36.5%.

And the “Tub. enzyme inhibition assay K. Activity” value ([2]; conc 10 (unit not given))?
Its value is 76.175.

And the “Tub. enzyme inhibition assay %inhibition” value ([2]; conc 100 (unit not given))?
Its value is 71.9%.

And the “Tub. enzyme inhibition assay K. Activity” value ([2]; conc 100 (unit not given))?
The value was 33.707.

And the IC50 [2]?
The IC50 was 47.8 ± 1.74 µM.

What about the “Tub. (IC50) IC50±SD” value [2] of the same molecule?
Its value is 23.48 ± 0.86 µg/mL.

Which results are given for Cc1ccc(-c2csc(NC(=O)CSc3nc(C)c(C(=O)/C=C/c4ccc(Cl)cc4)s3)n2)cc1 [Compound 10l, (E)-2-((5-(3-(4-chlorophenyl)acryloyl)-4-methylthiazol-2-yl)thio)-N-(4-(p-tolyl)thiazol-2-yl)acetamide]?
viability at 96 h, 50 µM [1]: 89%; Tub. enzyme inhibition assay %inhibition ([2]; conc 0.01 (unit not given)): 1.85%; Tub. enzyme inhibition assay K. Activity ([2]; conc 0.01 (unit not given)): 117.78; Tub. enzyme inhibition assay %inhibition ([2]; conc 0.1 (unit not given)): 10.9%; Tub. enzyme inhibition assay K. Activity ([2]; conc 0.1 (unit not given)): 106.95; Tub. enzyme inhibition assay %inhibition ([2]; conc 1 (unit not given)): 24.6%; Tub. enzyme inhibition assay K. Activity ([2]; conc 1 (unit not given)): 90.43; Tub. enzyme inhibition assay %inhibition ([2]; conc 10 (unit not given)): 49.3%; Tub. enzyme inhibition assay K. Activity ([2]; conc 10 (unit not given)): 60.835; Tub. enzyme inhibition assay %inhibition ([2]; conc 100 (unit not given)): 79.5%; Tub. enzyme inhibition assay K. Activity ([2]; conc 100 (unit not given)): 24.585; IC50 [2]: 13.9 ± 0.51 µM; Tub. (IC50) IC50±SD [2]: 7.331 ± 0.27 µg/mL

Which viability at 96 h, 50 µM [1] does the source give for Cc1ccc(/C=C/C(=O)c2sc(SCC(=O)Nc3nc(-c4ccc(C)cc4)cs3)nc2C)cc1 [Compound 10n, (E)-2-((4-methyl-5-(3-(p-tolyl)acryloyl)thiazol-2-yl)thio)-N-(4-(p-tolyl)thiazol-2-yl)acetamide] here?
The viability at 96 h, 50 µM was 89%.

And the “Tub. enzyme inhibition assay %inhibition” value ([2]; conc 0.01 (unit not given))?
Its value is 2.01%.

What about the “Tub. enzyme inhibition assay K. Activity” value ([2]; conc 0.01 (unit not given)) of the same molecule?
Its value is 117.59.

What about the “Tub. enzyme inhibition assay %inhibition” value ([2]; conc 0.1 (unit not given)) of the same molecule?
The value was 8.94%.

And the “Tub. enzyme inhibition assay K. Activity” value ([2]; conc 0.1 (unit not given))?
Its value is 109.27.

What about the “Tub. enzyme inhibition assay %inhibition” value ([2]; conc 1 (unit not given)) of the same molecule?
The value was 26.1%.

And the “Tub. enzyme inhibition assay K. Activity” value ([2]; conc 1 (unit not given))?
Its value is 88.73.

What about the “Tub. enzyme inhibition assay %inhibition” value ([2]; conc 10 (unit not given)) of the same molecule?
The value was 49.9%.

What about the “Tub. enzyme inhibition assay K. Activity” value ([2]; conc 10 (unit not given)) of the same molecule?
The value was 60.139.

What about the “Tub. enzyme inhibition assay %inhibition” value ([2]; conc 100 (unit not given)) of the same molecule?
The value was 76.7%.

What about the “Tub. enzyme inhibition assay K. Activity” value ([2]; conc 100 (unit not given)) of the same molecule?
Its value is 27.908.

What about the IC50 [2] of the same molecule?
Its IC50 is 16 ± 0.59 µM.

What about the “Tub. (IC50) IC50±SD” value [2] of the same molecule?
Its value is 8.075 ± 0.3 µg/mL.

Which viability at 96 h, 50 µM [1] does the source give for Cc1nc(SCC(=O)Nc2nccs2)sc1C(=O)/C=C/c1ccccc1 [Compound 13a, (E)-2-((5-cinnamoyl-4-methylthiazol-2-yl)thio)-N-(thiazol-2-yl)acetamide] here?
The viability at 96 h, 50 µM was 89%.

And the Tub %inh ([2]; conc 0.1 (unit not given))?
The Tub %inh was 5.68%.

What about the “Tub K.Activity” value ([2]; conc 0.1 (unit not given)) of the same molecule?
Its value is 113.18.

And the Tub %inh ([2]; conc 1 (unit not given))?
Its Tub %inh is 16.6%.

And the “Tub K.Activity” value ([2]; conc 1 (unit not given))?
Its value is 100.09.

What about the Tub %inh ([2]; conc 10 (unit not given)) of the same molecule?
Its Tub %inh is 32.4%.

And the “Tub K.Activity” value ([2]; conc 10 (unit not given))?
Its value is 81.141.

And the Tub %inh ([2]; conc 50 (unit not given))?
Its Tub %inh is 62.4%.

What about the “Tub K.Activity” value ([2]; conc 50 (unit not given)) of the same molecule?
The value was 45.076.

What about the Tub %inh ([2]; conc 100 (unit not given)) of the same molecule?
Its Tub %inh is 78.7%.

What about the “Tub K.Activity” value ([2]; conc 100 (unit not given)) of the same molecule?
Its value is 25.608.

What about the IC50 [2] of the same molecule?
Its IC50 is 15.8 ± 0.48 µM.
